Where two headings read alike, the source gives them in different places.
Legend:
Assay type in all cases: binding
[1] = biological target: T1, HeLa cell extract proteins (Homo sapiens, UniProt Q16543)
T1 construct: endogenous in cells; host or cells: HeLa cell extract
T1 sequence (Q16543 1-378): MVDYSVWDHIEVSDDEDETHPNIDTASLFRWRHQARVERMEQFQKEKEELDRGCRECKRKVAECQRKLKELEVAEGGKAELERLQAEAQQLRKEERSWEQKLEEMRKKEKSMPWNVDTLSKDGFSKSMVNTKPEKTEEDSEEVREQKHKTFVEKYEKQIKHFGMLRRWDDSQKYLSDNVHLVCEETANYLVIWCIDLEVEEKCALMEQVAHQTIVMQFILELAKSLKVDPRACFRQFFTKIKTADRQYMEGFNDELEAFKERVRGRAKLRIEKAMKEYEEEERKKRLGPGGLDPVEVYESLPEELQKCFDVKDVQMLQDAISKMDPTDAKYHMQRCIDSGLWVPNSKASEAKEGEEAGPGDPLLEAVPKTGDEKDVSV

[2] = biological target: T2, HeLa cell extract proteins (Homo sapiens, UniProt Q13535)
T2 construct: endogenous in cells; host or cells: HeLa cell extract
T2 sequence (Q13535 whole entry): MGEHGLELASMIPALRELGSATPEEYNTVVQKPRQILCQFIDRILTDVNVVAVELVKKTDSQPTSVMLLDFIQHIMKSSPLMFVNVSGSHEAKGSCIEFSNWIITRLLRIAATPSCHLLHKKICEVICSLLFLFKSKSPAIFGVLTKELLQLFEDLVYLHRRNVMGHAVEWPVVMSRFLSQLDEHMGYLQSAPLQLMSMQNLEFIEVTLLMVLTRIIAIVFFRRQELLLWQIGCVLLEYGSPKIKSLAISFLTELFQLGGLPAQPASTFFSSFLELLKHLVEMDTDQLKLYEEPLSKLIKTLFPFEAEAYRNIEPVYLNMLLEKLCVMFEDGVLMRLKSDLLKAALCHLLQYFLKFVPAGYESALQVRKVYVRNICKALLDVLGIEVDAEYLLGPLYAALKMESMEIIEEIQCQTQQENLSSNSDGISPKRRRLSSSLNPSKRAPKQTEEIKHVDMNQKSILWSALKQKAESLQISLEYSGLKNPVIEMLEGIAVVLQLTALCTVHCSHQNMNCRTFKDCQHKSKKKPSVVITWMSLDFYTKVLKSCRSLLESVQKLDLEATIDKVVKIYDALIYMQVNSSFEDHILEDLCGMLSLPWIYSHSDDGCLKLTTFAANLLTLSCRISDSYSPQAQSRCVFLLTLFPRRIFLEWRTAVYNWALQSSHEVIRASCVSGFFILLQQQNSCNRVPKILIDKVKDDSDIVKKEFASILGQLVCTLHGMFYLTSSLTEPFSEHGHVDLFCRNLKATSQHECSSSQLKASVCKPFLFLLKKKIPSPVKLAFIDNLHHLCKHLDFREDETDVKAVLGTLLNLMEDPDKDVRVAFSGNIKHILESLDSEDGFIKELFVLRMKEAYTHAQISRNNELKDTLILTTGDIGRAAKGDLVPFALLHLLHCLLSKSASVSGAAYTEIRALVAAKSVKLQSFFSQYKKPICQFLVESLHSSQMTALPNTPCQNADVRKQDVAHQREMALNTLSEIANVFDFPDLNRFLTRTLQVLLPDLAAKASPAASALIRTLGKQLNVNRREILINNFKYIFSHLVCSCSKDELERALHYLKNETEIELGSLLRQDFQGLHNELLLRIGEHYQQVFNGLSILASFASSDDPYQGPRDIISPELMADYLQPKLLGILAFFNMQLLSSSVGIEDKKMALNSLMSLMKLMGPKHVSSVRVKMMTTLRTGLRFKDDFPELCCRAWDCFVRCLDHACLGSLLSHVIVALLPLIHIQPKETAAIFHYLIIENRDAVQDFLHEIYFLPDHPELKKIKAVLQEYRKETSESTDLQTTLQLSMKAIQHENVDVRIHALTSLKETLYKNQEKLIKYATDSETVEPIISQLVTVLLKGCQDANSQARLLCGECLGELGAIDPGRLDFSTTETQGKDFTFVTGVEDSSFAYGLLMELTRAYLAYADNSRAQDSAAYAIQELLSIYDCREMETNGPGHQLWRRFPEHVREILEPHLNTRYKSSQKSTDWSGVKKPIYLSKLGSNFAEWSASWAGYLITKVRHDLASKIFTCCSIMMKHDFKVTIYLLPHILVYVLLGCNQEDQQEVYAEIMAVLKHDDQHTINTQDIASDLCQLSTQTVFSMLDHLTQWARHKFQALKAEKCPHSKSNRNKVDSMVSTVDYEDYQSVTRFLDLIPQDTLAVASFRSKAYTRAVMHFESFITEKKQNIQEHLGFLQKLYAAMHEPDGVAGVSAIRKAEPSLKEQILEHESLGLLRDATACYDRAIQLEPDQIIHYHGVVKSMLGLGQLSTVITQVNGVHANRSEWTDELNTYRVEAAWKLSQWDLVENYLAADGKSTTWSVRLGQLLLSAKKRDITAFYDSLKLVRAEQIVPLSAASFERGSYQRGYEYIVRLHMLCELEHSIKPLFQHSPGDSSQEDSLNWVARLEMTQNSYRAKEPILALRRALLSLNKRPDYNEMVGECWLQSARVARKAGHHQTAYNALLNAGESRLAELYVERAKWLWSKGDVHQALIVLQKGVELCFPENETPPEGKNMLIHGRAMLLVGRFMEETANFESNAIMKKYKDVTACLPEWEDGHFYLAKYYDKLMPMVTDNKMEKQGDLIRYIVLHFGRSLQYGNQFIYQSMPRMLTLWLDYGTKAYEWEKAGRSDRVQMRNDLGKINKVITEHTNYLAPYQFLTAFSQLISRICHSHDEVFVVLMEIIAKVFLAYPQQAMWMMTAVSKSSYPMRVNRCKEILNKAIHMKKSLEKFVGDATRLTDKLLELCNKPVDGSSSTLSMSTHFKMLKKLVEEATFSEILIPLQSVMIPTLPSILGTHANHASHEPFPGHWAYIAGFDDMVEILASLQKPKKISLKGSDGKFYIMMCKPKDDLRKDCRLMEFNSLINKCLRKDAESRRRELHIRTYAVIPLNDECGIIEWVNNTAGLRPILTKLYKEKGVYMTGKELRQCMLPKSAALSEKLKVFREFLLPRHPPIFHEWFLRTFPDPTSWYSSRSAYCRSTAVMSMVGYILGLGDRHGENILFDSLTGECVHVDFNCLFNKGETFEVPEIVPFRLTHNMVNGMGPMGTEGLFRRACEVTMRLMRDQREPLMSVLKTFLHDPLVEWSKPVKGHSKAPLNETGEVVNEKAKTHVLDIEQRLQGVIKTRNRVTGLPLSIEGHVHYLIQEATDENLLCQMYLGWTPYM

[3] = biological target: T3, HeLa cell extract proteins (Homo sapiens, UniProt O95848)
T3 construct: endogenous in cells; host or cells: HeLa cell extract
T3 sequence (O95848 1-222): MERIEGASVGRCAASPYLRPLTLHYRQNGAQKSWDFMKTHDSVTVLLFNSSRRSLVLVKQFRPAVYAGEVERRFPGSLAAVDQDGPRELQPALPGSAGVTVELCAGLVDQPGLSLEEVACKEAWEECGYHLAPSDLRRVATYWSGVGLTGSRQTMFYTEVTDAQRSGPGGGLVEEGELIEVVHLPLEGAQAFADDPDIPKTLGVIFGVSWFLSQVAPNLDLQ

[4] = biological target: T4, HeLa cell extract proteins (Homo sapiens, UniProt P61088)
T4 construct: endogenous in cells; host or cells: HeLa cell extract
T4 sequence (P61088 1-152): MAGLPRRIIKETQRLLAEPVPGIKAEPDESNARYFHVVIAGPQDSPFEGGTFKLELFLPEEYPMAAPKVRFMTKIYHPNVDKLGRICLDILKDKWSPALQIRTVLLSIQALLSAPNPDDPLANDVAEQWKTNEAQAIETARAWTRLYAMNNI

[5] = biological target: T5, HeLa cell extract proteins (Homo sapiens, UniProt P12268)
T5 construct: endogenous in cells; host or cells: HeLa cell extract

[6] = biological target: T6, HeLa cell extract proteins (Homo sapiens, UniProt Q9Y5V3); settings: captured protein MAGED1; HeLa
T6 construct: endogenous in cells; host or cells: HeLa cell extract
T6 sequence (Q9Y5V3 1-778): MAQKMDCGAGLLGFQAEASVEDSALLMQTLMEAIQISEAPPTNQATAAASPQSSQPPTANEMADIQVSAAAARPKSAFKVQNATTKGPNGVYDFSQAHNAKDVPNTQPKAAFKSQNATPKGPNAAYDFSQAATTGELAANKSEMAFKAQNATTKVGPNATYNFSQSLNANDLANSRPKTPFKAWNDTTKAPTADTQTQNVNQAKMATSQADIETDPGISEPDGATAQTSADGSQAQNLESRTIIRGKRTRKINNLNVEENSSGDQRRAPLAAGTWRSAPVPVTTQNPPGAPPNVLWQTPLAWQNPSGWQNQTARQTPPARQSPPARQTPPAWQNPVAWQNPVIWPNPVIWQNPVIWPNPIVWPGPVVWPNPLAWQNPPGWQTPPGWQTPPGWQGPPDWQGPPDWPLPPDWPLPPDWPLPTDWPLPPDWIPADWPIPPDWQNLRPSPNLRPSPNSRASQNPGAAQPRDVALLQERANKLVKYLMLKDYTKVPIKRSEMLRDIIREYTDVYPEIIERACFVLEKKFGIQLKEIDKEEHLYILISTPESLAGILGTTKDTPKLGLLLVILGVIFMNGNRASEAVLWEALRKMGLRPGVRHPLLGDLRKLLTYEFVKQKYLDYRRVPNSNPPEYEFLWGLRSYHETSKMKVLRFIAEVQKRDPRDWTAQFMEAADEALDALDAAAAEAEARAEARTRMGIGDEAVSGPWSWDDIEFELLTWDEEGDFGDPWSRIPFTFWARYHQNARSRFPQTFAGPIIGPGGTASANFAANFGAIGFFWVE

[7] = biological target: T7, HeLa cell extract proteins (Homo sapiens, UniProt P36776); settings: protein LONP1; HeLa
T7 construct: endogenous in cells; host or cells: HeLa cell extract
T7 sequence (P36776 68-959): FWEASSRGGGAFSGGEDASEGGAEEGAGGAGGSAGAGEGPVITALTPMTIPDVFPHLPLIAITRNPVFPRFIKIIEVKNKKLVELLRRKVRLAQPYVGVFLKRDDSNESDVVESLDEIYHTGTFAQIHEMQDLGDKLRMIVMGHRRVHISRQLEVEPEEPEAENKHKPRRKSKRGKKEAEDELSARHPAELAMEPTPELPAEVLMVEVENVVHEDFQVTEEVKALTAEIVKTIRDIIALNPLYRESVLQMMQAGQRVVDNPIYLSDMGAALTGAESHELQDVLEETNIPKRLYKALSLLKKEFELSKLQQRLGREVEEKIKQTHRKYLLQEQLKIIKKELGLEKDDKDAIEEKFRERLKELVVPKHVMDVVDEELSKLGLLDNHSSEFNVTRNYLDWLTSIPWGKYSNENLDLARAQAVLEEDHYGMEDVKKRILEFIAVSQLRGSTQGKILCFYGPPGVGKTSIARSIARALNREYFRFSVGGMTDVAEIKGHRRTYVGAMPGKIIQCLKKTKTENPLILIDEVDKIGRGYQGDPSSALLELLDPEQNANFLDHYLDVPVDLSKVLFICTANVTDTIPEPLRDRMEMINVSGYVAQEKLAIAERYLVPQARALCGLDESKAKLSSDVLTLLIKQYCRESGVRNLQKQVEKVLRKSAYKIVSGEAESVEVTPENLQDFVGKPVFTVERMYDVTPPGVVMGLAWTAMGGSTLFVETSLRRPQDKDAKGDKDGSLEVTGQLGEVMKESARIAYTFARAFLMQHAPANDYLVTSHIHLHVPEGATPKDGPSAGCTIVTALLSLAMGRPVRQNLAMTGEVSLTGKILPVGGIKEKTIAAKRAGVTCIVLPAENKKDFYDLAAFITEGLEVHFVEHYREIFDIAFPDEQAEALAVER

[8] = biological target: T8, HeLa cell extract proteins (Homo sapiens, UniProt Q9Y266); settings: protein NUDC; HeLa
T8 construct: endogenous in cells; host or cells: HeLa cell extract
T8 sequence (Q9Y266 whole entry): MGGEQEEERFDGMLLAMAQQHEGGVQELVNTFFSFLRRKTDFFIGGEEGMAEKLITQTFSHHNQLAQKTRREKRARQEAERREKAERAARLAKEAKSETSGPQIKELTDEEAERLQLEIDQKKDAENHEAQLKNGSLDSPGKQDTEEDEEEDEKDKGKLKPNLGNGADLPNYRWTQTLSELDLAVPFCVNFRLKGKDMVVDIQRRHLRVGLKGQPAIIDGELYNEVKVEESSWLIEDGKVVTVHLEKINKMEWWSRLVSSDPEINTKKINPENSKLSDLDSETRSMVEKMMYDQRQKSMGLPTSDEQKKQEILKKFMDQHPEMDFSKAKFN

Row | Structure (SMILES) | fold changes relative to vehicle control ([1]; protein CDC37, HeLa) | fold changes relative to vehicle control ([2]; protein ATR, HeLa) | fold changes relative to vehicle control ([3]; protein NUDT14, HeLa) | fold changes relative to vehicle control ([4]; HeLa, protein UBE2N) | fold changes relative to vehicle control ([5]; HeLa, protein IMPDH2) | fold changes relative to vehicle control [6] | fold changes relative to vehicle control [7] | fold changes relative to vehicle control [8] | other results
1 | Nc1nc2c(c(=O)[nH]1)N(C=O)C(CNc1ccc(C(=O)N[C@@H](CCC(=O)O)C(=O)O)cc1)CN2 (some centres unmarked) [LEU, leucovorin] | 1.13 | 0.66 | 1.01 | 1.06 | 1.06 | – | – | – | –
2 | Nc1nc2[nH]cc(CCc3ccc(C(=O)N[C@@H](CCC(=O)O)C(=O)O)cc3)c2c(=O)[nH]1 [PTX, pemetrexed] | – | – | – | – | – | – | – | – | fold changes relative to vehicle control [1]: 1.1; fold changes relative to vehicle control [2]: 0.79; fold changes relative to vehicle control [3]: 0.49; fold changes relative to vehicle control [4]: 1.83; fold changes relative to vehicle control [5]: 0.97
3 | CCCCCCOc1ccc(Cc2cnc(N)nc2N)cc1 [compound 1] | – | – | – | – | – | 0.98 | 0.86 | 1.23 | –
4 | CCCCCCOc1cccc(Cc2cnc(N)nc2N)c1 [compound 2] | – | – | – | – | – | 0.78 | 1.41 | 1.92 | –
5 | Nc1nc2cccc(-c3ccccc3)c2n1Cc1ccc(Cl)c(Cl)c1 [compound 3] | – | – | – | – | – | 0.88 | 1.16 | 1.06 | –
6 | NCCOCCOCC(=O)Nc1nc2ncc(CNc3ccc(C(=O)NC(CCC(=O)O)C(=O)O)cc3)nc2c(=O)[nH]1 (centres unmarked) [compound 6] | 1.21 | 0.69 | 0.8 | 1.78 | 1.18 | – | – | – | –
7 | NCCCNc1ccc(C(=O)NC(CCC(=O)O)C(=O)O)cc1 (centres unmarked) [compound 7] | 1.14 | 0.54 | 0.97 | 1.19 | 1.03 | – | – | – | –

Reference: publication PMC6199744, “Development of Chemical Proteomics for the Folateome and Analysis of the Kinetoplastid Folateome” (ACS Infectious Diseases, 2018)
